Source: patent publication EP2036556A1, “Piperidone derivatives and medical uses thereof” (Heinrich-Pette-Institut, priority 2007, dated 2009)
Read-outs that look alike come from different tables or passages of the source.

Key:
[1] = system: macrophage cell line J774.1; assay: Macrophage assay (Alamar Blue cytotoxicity); type: cell-based
Procedure: The macrophage cell line J774.1 was maintained in complete Click RPMI medium. For the experimental procedures cells were detached from the flasks with a rubber police, washed twice with PBS and suspended at 2 x 10^6 cells mL^-1 in complete Click RPMI medium. […] Following the addition of 20 µl of Alamar Blue, the plates were further incubated at similar conditions. The plates were then read 24 and 48 h later. Control experiments to examine the effect of cell density, incubation time and DMSO concentration were performed. Absorbance in the absence of compounds was set as 100 % of growth control.

[2] = system: rodent malaria model; settings: cited from earlier work
[3] = system: P. falciparum; settings: cited from earlier work
[4] = system: T. brucei brucei laboratory strain TC 221; assay: Trypanosome assay (in vitro cytotoxicity, Alamar Blue); type: cell-based, Trypanosoma brucei brucei; settings: for activity against trypanosomes (in words): statement of the discussion
Procedure: Parasite culture: Trypomastigote forms of T. brucei brucei laboratory strain TC 221 were cultured in Baltz medium according to standard conditions.^36 In vitro cytotoxicity assays: The test compounds were dissolved in DMSO or 0.1 M NaOH. A defined number of parasites (10^4 trypanosomes per mL) were exposed in test chambers of 96-well plates to various concentrations of the test substances in a final volume of 200 µl. Positive (trypanosomes in culture medium) and negative controls (test substance without trypanosomes) were run with each plate. The plates were then incubated at 37°C in an atmosphere of 5 % CO2 for a total time period of 72 h. […] The effect of test substances was quantified in ED50 values by linear interpolation^18 of three different measurements. The activity of the test substances was measured by light absorption in an MR 700 Microplate Reader at a wavelength of 550 nm with a reference wave length of 630 nm, using the Alamar Blue®.

[5] = Trypanosoma brucei, reference substances, for comparison (title of Table 1), read-out: ED50 (T. brucei brucei)
[6] = Mus musculus, J774.1 macrophages, after 48h, read-out: ED50 [µM] Macrophage after 48h
[7] = Trypanosoma brucei, strain TC 221, 10^4 trypanosomes per mL, incubated 72 h, reading at 48 h, Alamar Blue, read-out: ED50 [µM] T. brucei brucei
[8] = J774.1 macrophages, after 48h, read-out: ED50 [µM] Macrophage after 48h
[9] = strain TC 221, 10^4 trypanosomes per mL, incubated 72 h, reading at 48 h, Alamar Blue, read-out: ED50 [µM] T. brucei brucei
[10] = reference substances, for comparison (title of Table 1), read-out: ED50 (T. brucei brucei)

SMILES	EC50 [1, 6]	EC50 [4, 7]	also measured
C[C@@H]1[C@H](O)[C@@H](C)/C=C/C=C/C=C/C=C/C=C/C=C/C=C/[C@H](O[C@@H]2O[C@H](C)[C@@H](O)[C@H](N)[C@@H]2O)C[C@@H]2O[C@](O)(C[C@@H](O)C[C@@H](O)[C@H](O)CC[C@@H](O)C[C@@H](O)CC(=O)O[C@H]1C)C[C@H](O)[C@H]2C(=O)O [Amphotericin B, reference compound]			IC50 ([1]; reference substance, for comparison, read-out: IC50 (J774.1 Macrophages)): 68.6 ± 16.5 µM
Cc1cc(C2CCCCC2)n(O)c(=O)c1 [Ciclopiroxolamine, reference compound]			efficacy in vivo ([2]; rodent malaria model): ineffective in vivo; EC50 ([1]; Mus musculus, J774.1, reference substance, for comparison, 48 h, read-out: ED50 (macrophages, 48 h)): 4.62 ± 0.97 µM; IC50 ([3]; chloroquine sensitive (CQS) NF54 P. falciparum strain, read-out: IC50 in vitro proliferation): 8.2 µM; EC50 [4, 5]: 0.62 ± 0.22 µM
COC(=O)C1C(=O)C(C(=O)OC)[C@H](c2ccccn2)N[C@@H]1c1ccccn1 (stereo partly drawn) [Compound 1, Dimethyl (2R,6S)-4-oxo-2,6-di(pyridin-2-yl)piperidine-3,5-dicarboxylate]	> 100 µM	28.1 ± 1.52 µM	
C=CCN1[C@H](c2ccccn2)C(C(=O)OC)C(=O)C(C(=O)OC)[C@@H]1c1ccccn1 (stereo partly drawn) [Compound 2, Dimethyl (2R,6S)-1-allyl-4-oxo-2,6-di(pyridin-2-yl)piperidine-3,5-dicarboxylate]	> 100 µM	26.5 ± 7.64 µM	
COC(=O)C1C(=O)C(C(=O)OC)[C@H](c2ccccn2)N(CCO)[C@@H]1c1ccccn1 (stereo partly drawn) [Compound 3, Dimethyl (2R,6S)-1-(2-hydroxyethyl)-4-oxo-2,6-di(pyridin-2-yl)piperidine-3,5-dicarboxylate]	31.15 ± 0.14 µM	22.8 ± 5.57 µM	
COC(=O)C1C(=O)C(C(=O)OC)[C@H](c2ccccn2)N(CC(C)O)[C@@H]1c1ccccn1 (stereo partly drawn) [Compound 4, Dimethyl (2R,6S)-1-(2-hydroxypropyl)-4-oxo-2,6-di(pyridin-2-yl)piperidine-3,5-dicarboxylate]	32 ± 0.63 µM	18.3 ± 2.59 µM	
COC(=O)C1C(=O)C(C(=O)OC)[C@H](c2ccccn2)N(CCOCCO)[C@@H]1c1ccccn1 (stereo partly drawn) [Compound 5, Dimethyl (2R,6S)-1-[2-(2-hydroxyethoxy)ethyl]-4-oxo-2,6-di(pyridin-2-yl)piperidine-3,5-dicarboxylate]	38.5 ± 6.17 µM	24.1 ± 4.27 µM	
COC(=O)C1C(=O)C(C(=O)OC)[C@H](c2ccccn2)N(CCCC(=O)O)[C@@H]1c1ccccn1 (stereo partly drawn) [Compound 6, 4-[(2R,6S)-3,5-bis(methoxycarbonyl)-4-oxo-2,6-di(pyridin-2-yl)piperldin-1-yl]butanoic acid]			EC50 [1, 8]: 46 ± 5.92 µM; EC50 [4, 9]: 19.3 ± 2.28 µM
COC(=O)C1C(=O)C(C(=O)OC)[C@H](c2ccccn2)N(CCCCCCCC(=O)O)[C@@H]1c1ccccn1 (stereo partly drawn) [Compound 7, 8-[(2R,6S)-3,5-bis(methoxycarbonyl)-4-oxo-2,6-di(pyridin-2-yl)piperidin-1-yl]octanoic acid]	33.8 ± 2.81 µM	24 ± 4.48 µM	
COC(=O)C1C(=O)C(C(=O)OC)[C@H](c2ccccn2)N(Cc2ccccn2)[C@@H]1c1ccccn1 (stereo partly drawn) [Compound 8, Dimethyl (2R,6S)-4-oxo-2,6-di(pyridine-2-yl)-1-(pyridine-2-yl-methyl)-piperidine-3,5-diearboxylate]			EC50 [1, 8]: 29.9 ± 2.32 µM; EC50 [4, 9]: 4.62 ± 1.39 µM
COC(=O)C1C(=O)C(C(=O)OC)[C@H](c2ccccn2)N(Cc2ccccc2)[C@@H]1c1ccccn1 (stereo partly drawn) [Compound 9, Dimethyl (2R,6S)-1-benzyl-4-oxo-2,6-di(pyridin-2-yl)piperidine-3,5-dicarboxylate]	34 ± 1.56 µM	11.1 ± 1.91 µM	
C=CCN1[C@@H](c2ccc([N+](=O)[O-])cc2)C(C(=O)OC)=C(O)C(C(=O)OC)[C@@H]1c1ccc([N+](=O)[O-])cc1 (stereo partly drawn) [Compound 10, Dimethyl (2R,6S)-1-allyl-4-hydroxy-2,6-bis(4-nitrophenyl)-1,2,3,6-tetrahydropyridine-3,5-dicarboxylate]	50.3 ± 11.7 µM	2.41 ± 0.39 µM	
COC(=O)C1C(=O)C(C(=O)OC)[C@H](c2cccc([N+](=O)[O-])c2)N(Cc2ccc(Cl)cc2)[C@@H]1c1cccc([N+](=O)[O-])c1 (stereo partly drawn) [Compound 14, Dimethyl (2R,6S)-1-(4-chlorobenzyl)-2,6-bis(3-nitrophenyl)-4-oxopiperidine-3,5-dicarboxylate]	46.6 ± 9.86 µM	10.6 ± 2.83 µM	
COC(=O)C1C(=O)C(C(=O)OC)[C@H](c2cccc([N+](=O)[O-])c2)N(Cc2ccc(OC)cc2)[C@@H]1c1cccc([N+](=O)[O-])c1 (stereo partly drawn) [Compound 15, Dimethyl (2R,6S)-1-(4-methoxybenzyl)-2,6-bis(3-nitrophenyl)-4-oxopiperidine-3,5-dicarboxylate]	> 100 µM	3.93 ± 1.1 µM	
COC(=O)C1C(=O)C(C(=O)OC)[C@H](c2cccc([N+](=O)[O-])c2)N(Cc2ccc(C)cc2)[C@@H]1c1cccc([N+](=O)[O-])c1 (stereo partly drawn) [Compound 16, Dimethyl (2R,6S)-1-(4-methylbenzyl)-2,6-bis(3-nitrophenyl)-4-oxopiperidine 3,5-dicarboxylate]	49.8 ± 16.8 µM	2.66 ± 0.49 µM	
COC(=O)C1C(=O)C(C(=O)OC)[C@H](c2cccc([N+](=O)[O-])c2)N(Cc2ccccc2)[C@@H]1c1cccc([N+](=O)[O-])c1 (stereo partly drawn) [Compound 17, Dimethyl (2R,6S)-1-benzyl-2,6-bis(3-nitrophenyl)-4-oxopiperidine-3,5-dicarboxylate]	> 100 µM	2.49 ± 0.79 µM	
C=CCN1[C@H](c2ccccc2)C(C(=O)OC)C(=O)C(C(=O)OC)[C@@H]1c1ccccc1 (stereo partly drawn) [Compound 18, Dimethyl (2R,6S)-1-allyl-4-oxo-2,6-diphenylpiperidine-3,5-dicarboxylate]	> 100 µM	4.86 ± 0.63 µM	
COC(=O)C1=C(O)C[C@@H](c2ccccn2)N(Cc2ccccc2)[C@H]1c1ccccn1 [Compound 19, Methyl (2'R,6'S)-1'-benzyl-4'-hydroxy-1',2',5',6'-tetrahydro-2,2';6',2''-terpyridine-3'-carboxylate]	33.2 ± 0.69 µM	1.37 ± 0.02 µM	
COC(=O)C1=C(O)C[C@@H](c2ccccn2)N(Cc2ccc(C)cc2)[C@H]1c1ccccn1 [Compound 20, Methyl (2'R,6'S)-4'-hydroxy-1'-(4-methylbenzyl)-1',2',5',6'-tetrahydro-2,2';6',2''-terpyridine-3'-carboxylate]	34.9 ± 0.45 µM	0.47 ± 0.17 µM	
COC(=O)C1=C(O)C[C@@H](c2ccccn2)N(Cc2ccc(OC)cc2)[C@H]1c1ccccn1 [Compound 22, Methyl (2'R,6'S)-4'-hydroxy-1'-(4-methoxybenzyl)-1',2',5',6'-tetrahydro-2,2';6',2''-terpyridine-3'-carboxylate]	29.9 ± 0.33 µM	0.43 ± 0.17 µM	
COC(=O)C1=C(O)C[C@@H](c2ccccn2)N(Cc2cccc(OC)c2)[C@H]1c1ccccn1 [Compound 23, Methyl (2'R,6'S)-4'-hydroxy-1'-(3-methoxybenzyl)-1',2',5',6'-tetrahydro-2,2';6',2''-terpyridine-3'-carboxylate]	> 100 µM	> 100 µM	
ON=C1CCN(CCCc2ccccc2)CC1 [Compound 48, 1-(3-Phenylpropyl)-4-piperidine oxime]			activity against trypanosomes (in words) [4]: neither the oximes 48 and 52 nor the oxime ether 49 are active against trypanosomes
CC(CN1CCC(=NOCc2c(Cl)cccc2Cl)CC1)c1ccccc1 (centres unmarked) [Compound 49, 1-(2-Phenylpropyl)-4-oxo-piperidine O-(2,6-dichloro-benzyl)-oxime]	> 100 µM	> 100 µM	activity against trypanosomes (in words) [4]: neither the oximes 48 and 52 nor the oxime ether 49 are active against trypanosomes
ON=CC1CCN(CCCc2ccccc2)CC1 [Compound 52, 1-1-(3-Phenyl-propyl)-piperidine-4-carbaldehyde oxime]			EC50 [1, 8]: > 100 µM; activity against trypanosomes (in words) [4]: neither the oximes 48 and 52 nor the oxime ether 49 are active against trypanosomes; EC50 [4, 9]: > 100 µM
NCCCC(N)(C(=O)O)C(F)F (centres unmarked) [Eflornitine, reference compound]			EC50 [4, 10]: 22.9 µM
N=C(N)c1ccc(OCCCCCOc2ccc(C(=N)N)cc2)cc1 [Pentamidine diisothionate, reference compound]			EC50 [4, 10]: 0.0027 µM
Cc1ccc(C(=O)Nc2ccc(S(=O)(=O)O)c3cc(S(=O)(=O)O)cc(S(=O)(=O)O)c23)cc1NC(=O)c1cccc(NC(=O)Nc2cccc(C(=O)Nc3cc(C(=O)Nc4ccc(S(=O)(=O)O)c5cc(S(=O)(=O)O)cc(S(=O)(=O)O)c45)ccc3C)c2)c1 [Suramine, reference compound]			EC50 [4, 5]: 0.3 µM
N[C@@H](Cn1ccc(=O)c(O)c1)C(=O)O [mimosine, L-mimosine]			toxicity in vivo ([2]; in vivo): toxic; IC50 ([3]; chloroquine resistant (CQR) strain, read-out: IC50 antiplasmodial effect): 39 µM; IC50 ([3]; chloroquine susceptible (CQS) strain, read-out: IC50 antiplasmodial effect): 32 µM
